Data set [1] deals with RAW264.7. As to the kind of experiment: Antiinflammatory activity against mouse RAW264.7 cells stably transfected with luciferase reporter gene assessed as inhibition of LPS-induced NF-kB activation preincubated for 30 min followed by LPS stimulation for 8 hrs by luciferase based assay. In kind it is functional, cell-based. Background: Reporter assays use an easily measured gene product as a stand-in for the process of interest.

The subject of the next data set is BMDM. As to the kind of experiment: Anti-osteoclastogenesis activity in RANKL/MCSF-induced mouse BMDM cells assessed as inhibition of osteoclast differentiation at 5 to 20 uM incubated for 3 days by TRAP-staining based microscopic analysis. In kind it is functional, cell-based. The conditions noted are these: dose 5-20 µM, time 3.0 day.
Data set [2] relates to RAW264.7. As to the kind of experiment: Cytotoxicity against mouse RAW264.7 cells assessed as reduction in cell viability at 5 to 20 uM incubated for 72 hrs by MTT assay. In kind it is toxicity, cell-based. Particulars: raw264.7, 72 h, dose 5-20 µM. On the technique in general: Tetrazolium assays rely on reduction of a dye to a coloured formazan, in cell work by metabolically active cells.

The target in data set [3] is T1, Mitogen-activated protein kinase kinase kinase 7 (Mus musculus) (UniProt Q62073).
T1 sequence (whole entry): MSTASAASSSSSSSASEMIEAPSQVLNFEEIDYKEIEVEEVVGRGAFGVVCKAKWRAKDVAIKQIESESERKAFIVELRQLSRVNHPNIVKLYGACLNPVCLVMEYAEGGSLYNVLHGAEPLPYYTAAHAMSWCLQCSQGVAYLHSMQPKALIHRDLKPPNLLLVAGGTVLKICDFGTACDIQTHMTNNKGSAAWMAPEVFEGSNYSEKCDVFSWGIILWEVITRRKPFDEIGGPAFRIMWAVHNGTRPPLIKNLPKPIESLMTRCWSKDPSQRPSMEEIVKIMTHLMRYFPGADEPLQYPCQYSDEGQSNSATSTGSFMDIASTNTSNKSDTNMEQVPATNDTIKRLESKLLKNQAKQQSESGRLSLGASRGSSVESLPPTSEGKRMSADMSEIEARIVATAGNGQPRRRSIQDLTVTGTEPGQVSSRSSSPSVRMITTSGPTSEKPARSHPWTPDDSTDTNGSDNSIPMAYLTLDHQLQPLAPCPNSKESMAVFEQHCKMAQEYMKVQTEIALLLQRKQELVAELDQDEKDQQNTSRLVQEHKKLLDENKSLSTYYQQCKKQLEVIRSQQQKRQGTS
As to the kind of experiment: Inhibition of TAK1 activation in mouse RAW264.7 cells at 5 to 20 uM preincubated for 4 hrs followed by RANKL addition and measured after 30 mins by Western blot analysis. The conditions noted are these: dose 5-20 µM, time 4.5 hrs. In kind it is cell-based. A general note: A western blot detects proteins with antibodies after separation by electrophoresis.

For data set [4], the target named is T2, NF-kappa-B inhibitor alpha (Mus musculus) (UniProt Q9Z1E3).
T2 sequence (whole entry): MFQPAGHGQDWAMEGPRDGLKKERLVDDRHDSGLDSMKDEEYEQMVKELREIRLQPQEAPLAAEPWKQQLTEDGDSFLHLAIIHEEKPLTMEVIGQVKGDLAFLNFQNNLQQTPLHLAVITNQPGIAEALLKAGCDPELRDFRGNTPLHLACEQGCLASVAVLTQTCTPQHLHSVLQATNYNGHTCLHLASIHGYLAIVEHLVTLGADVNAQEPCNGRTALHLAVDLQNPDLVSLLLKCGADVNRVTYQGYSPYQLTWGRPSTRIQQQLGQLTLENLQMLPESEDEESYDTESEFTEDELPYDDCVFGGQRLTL
As to the kind of experiment: Inhibition of IkappaBalpha phosphorylation in mouse RAW264.7 cells at 5 to 20 uM preincubated for 4 hrs followed by RANKL addition and measured after 30 mins by Western blot analysis. In kind it is cell-based. The conditions noted are these: dose 5-20 µM.

The subject of data set [5] is RAW264.7. As to the kind of experiment: Upregulation of cytoplasmic p65 level in mouse RAW264.7 cells at 5 to 20 uM preincubated for 4 hrs followed by RANKL addition and measured after 30 mins by Western blot analysis. In kind it is functional, cell-based. The conditions noted are these: dose 5-20 µM, time 4.5 hrs.
Data set [6] relates to RAW264.7. As to the kind of experiment: Inhibition of p65 translocation in mouse RAW264.7 cells at 5 to 20 uM preincubated for 4 hrs followed by RANKL addition and measured after 30 mins by Western blot analysis. In kind it is cell-based. The conditions noted are these: dose 5-20 µM, time 4.5 hrs.
For data set [7], the system named is RAW264.7. As to the kind of experiment: Inhibition of p65 translocation in mouse RAW264.7 cells at 20 uM preincubated with RANKL for 24 hrs followed by compound addition and measured after 4 hrs by immunofluorescence analysis. In kind it is cell-based.
Data set [8] relates to RAW264.7. As to the kind of experiment: Downregulation of nuclear NFATc1 expression in mouse RAW264.7 cells at 20 uM preincubated for 4 hrs followed by RANKL addition and measured after 24 hrs by Western blot analysis. The format is functional, cell-based. Particulars: time 28.0 hrs.

The text below walks through data of ChEMBL document CHEMBL5634172, “Peniditerpenoids A and B: Oxidized Indole Diterpenoids with Osteoclast Differentiation Inhibitory Activity from a Mangrove-Sediment-Derived Penicillium sp” (J Nat Prod, 2024).

Calls of active or inactive are those of the source. The rule behind the calls is not given here.

Take `CC1(C)O[C@@]23CC[C@@]4(C)[C@@](O)(CC[C@@H](CC(=O)c5ccccc5N)[C@]4(C)C(=O)O)C2=CC(=O)[C@@H]1O3`: in the data set on RAW264.7 [1], the IC50 (commonly the concentration at which inhibition is half-maximal) turned out to be 11 µM. In addition, the outcome with BMDM, in the data set on RAW264.7 [5] and with RAW264.7 [8] was Active. Further, the Activity entry in the data set with RAW264.7 [2] is “Non-Toxic”. The inhibition result (in data set [3]; in data set [4]; in the data set on RAW264.7 [6]; in the data set with RAW264.7 [7]) was “Active” each time.

As for `Cc1ccc(S(=O)(=O)/C=C/C#N)cc1`, the IC50 in the data set with RAW264.7 [1] came to 5 µM.
